Source: article PMC4284516 (Scientific Reports, 2015)

What was measured:
[1] = tested on: mice; conditions: cited from earlier work
[2] = tested on: MAGL over FAAH; conditions: cited from earlier work
[3] = tested on: Swiss mice; experiment: Novel object recognition task
[4] = tested on: NMRI mice; experiment: Y-maze test; type: in vivo; conditions: 1.5 mg/kg, i.p.
[5] = biological target: T1, human recombinant MAGL (rhMAGL) (Homo sapiens, UniProt Q99685); experiment: MAGL biochemical assay; conditions: read-out: IC50, rhMAGL; 4-nitrophenylacetate substrate; N = 3
T1 sequence (Q99685 1-303): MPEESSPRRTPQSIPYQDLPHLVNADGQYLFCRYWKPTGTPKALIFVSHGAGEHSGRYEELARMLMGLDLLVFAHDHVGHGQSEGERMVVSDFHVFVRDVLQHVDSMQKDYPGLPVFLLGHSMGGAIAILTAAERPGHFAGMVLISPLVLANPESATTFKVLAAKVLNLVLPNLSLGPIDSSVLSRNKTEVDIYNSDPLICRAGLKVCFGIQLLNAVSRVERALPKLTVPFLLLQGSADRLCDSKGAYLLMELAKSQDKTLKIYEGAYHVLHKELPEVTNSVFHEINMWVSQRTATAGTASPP

[6] = tested on: OF1 mice; experiment: Mouse tetrad experiments; conditions: 15 mg/kg i.p.
[7] = tested on: OF1 mice; experiment: Pentylenetetrazol; conditions: diazepam 3 mg/kg i.p.
[8] = tested on: OF1 mice; experiment: Elevated plus-maze test; conditions: diazepam 3 mg/kg p.o., 60 min before testing
[9] = tested on: OF1 mice; experiment: 6-Hz electroshock-induced seizures; type: in vivo; conditions: levetiracetam 20 mg/kg i.p.
[10] = tested on: PBQ-induced writhing in OF1 mice; experiment: Phenylbenzoquinone; type: in vivo; conditions: combined with SAR127303 3 mg/kg p.o.
[11] = tested on: rat hippocampal slices; experiment: [3H]ACh release evoked by electrical depolarisation in hippocampal slices; type: cell-based, Sprague-Dawley rats; conditions: rimonabant 10^−7 mol/L

O=C(Oc1ccc([N+](=O)[O-])cc1)N1CCC(C(O)(c2ccc3c(c2)OCO3)c2ccc3c(c2)OCO3)CC1 [JZL184]
dose impairing MWM performance (dose that also inhibits FAAH) [1]: 40 mg/kg

O=C(OC(C(F)(F)F)C(F)(F)F)N1CCC(C(O)(c2ccc3c(c2)OCO3)c2ccc3c(c2)OCO3)CC1 [KML29]
selectivity for MAGL over FAAH and most other serine hydrolases [2]: > 100 fold

C[C@]12N[C@H](Cc3ccccc31)c1ccccc12 [MK-801]
novelty index ratio versus control vehicle ([3]; 0.125 mg/kg): significantly reduced

c1ccc(C2(N3CCCCC3)CCCCC2)cc1 [PCP]
spontaneous alternation versus vehicle [4]: significant reduction

COc1ccc2c(C3COC(CCCNC(=O)OCC(N)=O)OC3)cccc2c1 (stereo not shown) [SSR411298]
IC50 [5]: > 10 µM

Cc1c(C(=O)c2cccc3ccccc23)c2cccc3c2n1[C@H](CN1CCOCC1)CO3 [WIN55,512-2]
antinociception in the tail-flick test [6]: significant antinociceptive | catalepsy [6]: cataleptic | duration of antinociceptive, hypothermic and cataleptic effects [6]: at least 4 hours | hypothermia [6]: hypothermic | locomotor activity [6]: decreased significantly

CN1C(=O)CN=C(c2ccccc2)c2cc(Cl)ccc21 [diazepam]
protection in the PTZ test [7]: full protection | percentage of time in open arms [8]: opposite effects

CC[C@@H](C(N)=O)N1CCCC1=O [levetiracetam]
protection in the 6-Hz test [9]: full protection

Cc1c(C(=O)NN2CCCCC2)nn(-c2ccc(Cl)cc2Cl)c1-c1ccc(Cl)cc1 [rimonabant]
blockade of the anti-writhing effects of SAR127303 [10]: blocked | novelty index ratio when coadministered with SAR127303 ([3]; rimonabant 3 mg/kg + SAR127303 1 mg/kg): significantly different from chance level | reversal of the effect of 2-AG at 10^−8 mol/L on [3H]-ACh release [11]: completely reversed
